Experimental data: patent US8609653B2, “Azaindole compounds and methods for treating HIV” (priority 2011, dated 2013)

The compounds below were run on HIV (assay: MT4 assay: antiviral HIV activity in MT-4 cells). Details: Human immunodeficiency virus 1, MT4, 96 h, read-out: HIV MT4 Assay IC50 (μM), HTLV-1 transformed cell line MT-4; read-out 96 hours later with cell titer glo; 10 point dose response.
Assay type: cell-based
Method: Antiviral HIV activity and cytotoxicity values for compounds of the invention from Table 1 were measured in parallel in the HTLV-1 transformed cell line MT-4 based on the method previously described (Hazen et al., 2007, In vitro antiviral activity of the novel, tyrosyl-based human immunodeficiency virus (HIV) type 1 protease inhibitor brecanavir (GW640385) in combination with other antiretrovirals and against a panel of protease inhibitor-resistant HIV (Hazen et al., “In vitro antiviral activity of the novel, tyrosyl-based human immunodeficiency virus (HIV) type 1 protease inhibitor brecanavir (GW640385) in combination with other antiretrovirals and against a panel of protease inhibitor-resistant HIV”, Antimicrob. Agents Chemother. 2007, 51: 3147-3154; and Pauwels et al., “Sensitive and rapid assay on MT-4 cells for the detection of antiviral compounds against the AIDS virus”, J. of Virological Methods 1987, 16: 171-185).
Luciferase activity was measured 96 hours later by adding a cell titer glo (Promega, Madison, Wis.). Percent inhibition of cell protection data was plotted relative to no compound control. Under the same condition, cytotoxicity of the compounds was determined using cell titer Glo™ (Promega, Madison, Wis.). IC50s were determined from a 10 point dose response curve using 3-4-fold serial dilution for each compound, which spans a concentration range>1000 fold.
These values are plotted against the molar compound concentrations using the standard four parameter logistic equation: y=((Vmax*x^n)/(K^n+x^n))+Y2
Y2=minimum y n=slope factor
Vmax=maximum y x=compound concentration [M]

Row | SMILES | IC50 [µM]
1 | Cc1ccc(-c2c(C(OC(C)(C)C)C(=O)O)c(C)nc3c2ccn3Cc2ccc(Cl)cc2F)cc1 (stereo not drawn) [Example 23, 2-(tert-butoxy)-2-(1-(4-chloro-2-fluorobenzyl)-6-methyl-4-(p-tolyl)-1H-pyrrolo[2,3-b]pyridin-5-yl)acetic acid] | 0.27
2 | Cc1ccc(-c2c(C(OC(C)(C)C)C(=O)O)c(C)nc3c2ccn3Cc2ccc(F)cc2F)cc1 (stereo not drawn) [Example 24, 2-(tert-butoxy)-2-(1-(2,4-difluorobenzyl)-6-methyl-4-(p-tolyl)-1H-pyrrolo[2,3-b]pyridin-5-yl)acetic acid] | 0.125
3 | Cc1ccc(-c2c(C(OC(C)(C)C)C(=O)O)c(C)nc3c2ccn3Cc2ccc(F)c(C)c2)cc1 (stereo not drawn) [Example 25, 2-(tert-butoxy)-2-(1-(4-fluoro-3-methylbenzyl)-6-methyl-4-(p-tolyl)-1H-pyrrolo[2,3-b]pyridin-5-yl)acetic acid] | 0.14
4 | Cc1ccc(-c2c(C(OC(C)(C)C)C(=O)O)c(C)nc3c2ccn3Cc2c(F)cc(F)cc2F)cc1 (stereo not drawn) [Example 26, 2-(tert-butoxy)-2-(6-methyl-4-(p-tolyl)-1-(2,4,6-trifluorobenzyl)-1H-pyrrolo[2,3-b]pyridin-5-yl)acetic acid] | 0.12
5 | Cc1nc2c(ccn2Cc2ccc(F)cc2)c(-c2ccc3c(c2)CCCO3)c1C(OC(C)(C)C)C(=O)O (stereo not drawn) [Example 27, 2-(tert-butoxy)-2-(4-(chroman-6-yl)-1-(4-fluorobenzyl)-6-methyl-1H-pyrrolo[2,3-b]pyridin-5-yl)acetic acid] | 0.08
6 | Cc1nc2c(ccn2Cc2ccc(F)c(F)c2)c(-c2ccc3c(c2)CCCO3)c1[C@@H](OC(C)(C)C)C(=O)O [Example 28, (R)-2-(tert-butoxy)-2-(4-(chroman-6-yl)-1-(3,4-difluorobenzyl)-6-methyl-1H-pyrrolo[2,3-b]pyridin-5-yl)acetic acid] | 6.56
7 | Cc1nc2c(ccn2Cc2ccc(F)c(F)c2)c(-c2ccc3c(c2)CCCO3)c1[C@H](OC(C)(C)C)C(=O)O [Example 29, (S)-2-(tert-butoxy)-2-(4-(chroman-6-yl)-1-(3,4-difluorobenzyl)-6-methyl-1H-pyrrolo[2,3-b]pyridin-5-yl)acetic acid] | 0.024
8 | Cc1cc(Cn2ccc3c(-c4ccc5c(c4)CCCO5)c(C(OC(C)(C)C)C(=O)O)c(C)nc32)ccc1F (stereo not drawn) [Example 30, 2-(tert-butoxy)-2-(4-(chroman-6-yl)-1-(4-fluoro-3-methylbenzyl)-6-methyl-1H-pyrrolo[2,3-b]pyridin-5-yl)acetic acid] | 0.07
9 | Cc1nc2c(ccn2Cc2ccc(F)cc2Cl)c(-c2ccc3c(c2)CCCO3)c1C(OC(C)(C)C)C(=O)O (stereo not drawn) [Example 31, 2-(tert-butoxy)-2-(1-(2-chloro-4-fluorobenzyl)-4-(chroman-6-yl)-6-methyl-1H-pyrrolo[2,3-b]pyridin-5-yl)acetic acid] | 0.04
10 | Cc1nc2c(ccn2Cc2cc(F)c(F)c(F)c2)c(-c2ccc3c(c2)CCCO3)c1C(OC(C)(C)C)C(=O)O (stereo not drawn) [Example 32, 2-(tert-butoxy)-2-(4-(chroman-6-yl)-6-methyl-1-(3,4,5-trifluorobenzyl)-1H-pyrrolo[2,3-b]pyridin-5-yl)acetic acid] | 0.1
11 | Cc1nc2c(ccn2Cc2cc(F)ccc2F)c(-c2ccc3c(c2)CCCO3)c1C(OC(C)(C)C)C(=O)O (stereo not drawn) [Example 33, 2-(tert-butoxy)-2-(4-(chroman-6-yl)-1-(2,5-difluorobenzyl)-6-methyl-1H-pyrrolo[2,3-b]pyridin-5-yl)acetic acid] | 0.096
12 | Cc1nc2c(ccn2Cc2cccc(F)c2F)c(-c2ccc3c(c2)CCCO3)c1C(OC(C)(C)C)C(=O)O (stereo not drawn) [Example 34, 2-(tert-butoxy)-2-(4-(chroman-6-yl)-1-(2,3-difluorobenzyl)-6-methyl-1H-pyrrolo[2,3-b]pyridin-5-yl)acetic acid] | 0.06
13 | Cc1ccc(Cn2ccc3c(-c4ccc5c(c4)CCCO5)c(C(OC(C)(C)C)C(=O)O)c(C)nc32)cc1F (stereo not drawn) [Example 35, 2-(tert-butoxy)-2-(4-(chroman-6-yl)-1-(3-fluoro-4-methylbenzyl)-6-methyl-1H-pyrrolo[2,3-b]pyridin-5-yl)acetic acid] | 0.42
14 | Cc1ccc(-c2c([C@@H](OC(C)(C)C)C(=O)O)c(C)nc3c2ccn3Cc2ccc(F)cc2F)cc1 [Example 36, (R)-2-(tert-butoxy)-2-(1-(2,4-difluorobenzyl)-6-methyl-4-(p-tolyl)-1H-pyrrolo[2,3-b]pyridin-5-yl)acetic acid] | 50
15 | Cc1ccc(-c2c([C@H](OC(C)(C)C)C(=O)O)c(C)nc3c2ccn3Cc2ccc(F)cc2F)cc1 [Example 37, (S)-2-(tert-butoxy)-2-(1-(2,4-difluorobenzyl)-6-methyl-4-(p-tolyl)-1H-pyrrolo[2,3-b]pyridin-5-yl)acetic acid] | 0.07
16 | COc1ccc(Cn2ccc3c(-c4ccc5c(c4)CCCO5)c(C(OC(C)(C)C)C(=O)O)c(C)nc32)cc1 (stereo not drawn) [Example 38, 2-(tert-butoxy)-2-(4-(chroman-6-yl)-1-(4-methoxybenzyl)-6-methyl-1H-pyrrolo[2,3-b]pyridin-5-yl)acetic acid] | 0.12
17 | Cc1nc2c(ccn2Cc2ccccc2F)c(-c2ccc3c(c2)CCCO3)c1C(OC(C)(C)C)C(=O)O (stereo not drawn) [Example 39, 2-(tert-butoxy)-2-(4-(chroman-6-yl)-1-(2-fluorobenzyl)-6-methyl-1H-pyrrolo[2,3-b]pyridin-5-yl)acetic acid] | 0.068
18 | Cc1nc2c(ccn2Cc2cccc(Cl)c2F)c(-c2ccc3c(c2)CCCO3)c1C(OC(C)(C)C)C(=O)O (stereo not drawn) [Example 40, 2-(tert-butoxy)-2-(1-(3-chloro-2-fluorobenzyl)-4-(chroman-6-yl)-6-methyl-1H-pyrrolo[2,3-b]pyridin-5-yl)acetic acid] | 0.125
19 | Cc1nc2c(ccn2Cc2ccc(C(F)(F)F)o2)c(-c2ccc3c(c2)CCCO3)c1C(OC(C)(C)C)C(=O)O (stereo not drawn) [Example 41] | 0.1
20 | Cc1nc2c(ccn2CCc2ccc(F)cc2)c(-c2ccc3c(c2)CCCO3)c1C(OC(C)(C)C)C(=O)O (stereo not drawn) [Example 42, 2-(tert-butoxy)-2-(4-(chroman-6-yl)-1-(4-fluorophenethyl)-6-methyl-1H-pyrrolo[2,3-b]pyridin-5-yl)acetic acid] | 0.58
21 | Cc1nc2c(ccn2Cc2ccccc2)c(-c2ccc3c(c2)CCCO3)c1C(OC(C)(C)C)C(=O)O (stereo not drawn) [Example 43, 2-(1-benzyl-4-(chroman-6-yl)-6-methyl-1H-pyrrolo[2,3-b]pyridin-5-yl)-2-(tert-butoxy)acetic acid] | 0.084
22 | Cc1nc2c(ccn2Cc2c(F)cc(F)cc2F)c(-c2ccc3c(c2)CCCO3)c1C(OC(C)(C)C)C(=O)O (stereo not drawn) [Example 44, 2-(tert-butoxy)-2-(4-(chroman-6-yl)-6-methyl-1-(2,4,6-trifluorobenzyl)-1H-pyrrolo[2,3-b]pyridin-5-yl)acetic acid] | 0.053
23 | COc1ccc(Cn2ccc3c(-c4ccc5c(c4)CCCO5)c(C(OC(C)(C)C)C(=O)O)c(C)nc32)cc1F (stereo not drawn) [Example 45, 2-(tert-butoxy)-2-(4-(chroman-6-yl)-1-(3-fluoro-4-methoxybenzyl)-6-methyl-1H-pyrrolo[2,3-b]pyridin-5-yl)acetic acid] | 0.055
24 | COc1ccc(F)c(F)c1Cn1ccc2c(-c3ccc(C)cc3)c(C(OC(C)(C)C)C(=O)O)c(C)nc21 (stereo not drawn) [Example 46, 2-(tert-butoxy)-2-(1-(2,3-difluoro-6-methoxybenzyl)-6-methyl-4-(p-tolyl)-1H-pyrrolo[2,3-b]pyridin-5-yl)acetic acid] | 0.1
